From patent publication US10561638B2, “Methods for treating dependence” (Biotie Therapies, Inc., priority 2007, dated 2020)

Tests used:
[1] = system: normotensive Wistar rats; assay: 7 day radio-telemetry study in normotensive Wistar rats; settings: hydralazine 10 mg/kg
Procedure: Male Crl:COBS(WI)BR rats of 15 weeks old were used.
Both nepicastat and hydralazine were prepared in water with traces of Tween 80. All doses were given orally to the rat in 10 ml/kg and were expressed as free base equivalents.
All values were expressed as means±SEM. Statistical significance was defined as a p level of less than 0.05.
Body weights were recorded daily.

[2] = system: Sprague Dawley rats; assay: Locomotor activity and acoustic startle reactivity in rats, acute; assay type: in vivo; settings: nepicastat 3-100 mg/kg, SKF-102698 100 mg/kg, clonidine 40 μg/kg
From the text: Rats were housed under a normal light/dark cycle with lights on between 0900 Hrs. and 2100 Hrs. Animals were housed in pairs in standard metal wire cages, and food and water were allowed ad libitum. The locomotor activity boxes consisted of a Plexiglas box measuring 18''×18'' by 12'' high. Surrounding the Plexiglas® boxes were Omnitech Digiscan Monitors (model # RXXCM 16) which consisted of a one inch ban of photobeams and photosensors numbering 32 per box. The number of photobeam breaks were analyzed by an Omnitech Digiscan Analyzer (model # DCM-8). […] A piezoelectric accelerometer transforms the subject's movement into an arbitrary voltage on a scale of 0 to 4095. […] The average startle was calculated for each rat by taking the mean of startle number 11 through 45 (the first ten startles will be disregarded). Sixty-four of these rats were then placed in one of eight treatment groups such that each group had similar mean startle values. The eight treatment groups were as follows: […] […] The rats motor activity was monitored for four hours. […] To evaluate motor activity, horizontal activity (number of photobeams broken), number of movements, and rest time were measured. Each parameter was analyzed separately. […] The startle responses were analyzed using analysis of covariance. […] Therefore, the startle responses were analyzed by time. […]

[3] = system: rats; assay: Chronic (10 day) dosing behavioral tests in rats; settings: rat, in vivo
Procedure: The effects of chronic dosing of nepicastat in rats were examined. Between three and thirteen days prior to the first dosing day the rats were placed inside the startle apparatus and after a five minute acclimation period they were presented with a 118 dB noise burst on average once a minute (a variable inter-trial interval ranging between 30 and 90 seconds will be used) for 20 minutes. The startle responses were measured and a mean for the last twenty startle response was calculated for each rat.
The following behavioral tests were administered during and after chronic dosing; body core temperature, motor activity, acoustic startle reactivity, and pre-pulse inhibition of acoustic startle.
The animals were tested in an enclosed room with a white noise generator running Motor activity tests were conducted immediately after the body core temperature reading taken on dosing day ten (about 3 hours and 35 minutes after the morning daily dose of nepicastat, and SKF-102698, and 20 minutes prior to the daily administration of clonidine and d-amphetamine on dosing day ten). Motor activity tests were run for one hour. A diagnostic program was run on each of the motor activity chambers prior to each test session to assure that the photo beams and light sensors were operating properly. […] D-amphetamine was used as the positive control for this assay.
Rat body core temperatures were obtained by inserting the rectal probe 2 cm into the colon of each rat. Each rat's body core temperature was measured three times and the average of the three reading was calculated. Body core temperature readings were obtained immediately prior to the ten day chronic dosing schedule (to obtain a baseline), and three and half hour after the morning daily dose of nepicastat, and SKF-102698, and 15 minutes prior to the daily administration of clonidine and d-amphetamine, on dosing days one, five and ten. […] Both clonidine (an alpha2 agonist), and d-amphetamine (a dopamine releaser) were used as the positive controls for this assay.
Acoustic startle reactivity (a series of muscle contractions elicited by an intense burst of noise with a rapid onset), and pre-pulse inhibition (sensorimotor gating measured by analyzing any decrease in startle reactivity which occurs when a startling stimulus is immediately preceded by a non startling stimulus) were both measured in eight SR-Lab (San Diego Instruments, San Diego, Calif.) test stations. The rats were placed individually in a Plexiglas cylinder (10 cm diameter) which was housed in a ventilated sound-attenuating enclosure. Acoustic noise bursts (a broad band noise with a rise time and fall time of 1 msec) were presented via a speaker mounted 30 cm above the animal. Also, these speakers produced a 68 dB level of background noise throughout all test sessions. A piezoelectric accelerometer attached below the plexiglass cylinder transduced the subject's movement into a voltage which was then rectified and digitized (on a scale from 0 to 4095) by a PC computer equipped with SR-Lab software and interface assembly. A decibel meter was used to calibrate the speakers in each of the eight test station to ±1% of the mean. Additionally, a SR-Lab calibrating instrument was used to calibrate each of the eight startle detection apparatuses to ±2% of the mean. Startle reactivity and pre-pulse inhibition tests were run concurrently immediately alter the motor activity test (about 4 hours and 40 minutes after the morning daily injection of nepicastat, and SKF-102698, and 10 minutes after a supplemental administration of clonidine and d-amphetamine on dosing day ten).

[4] = system: CD-1 (ICR) mice; assay: Locomotor activity in mice, intraperitoneal; assay type: in vivo; settings: i.p.; nepicastat 3-100, SKF-102698 30 and 100, cocaine 30 mg/kg
From the text: Adult male CD-1 (ICR) mice (30-40 g on study day) were housed in groups of eight under a normal light/dark cycle with lights on between 0900 hr and 2100 hr. Food and water were allowed ad libitum. All animals were naive to drug treatment and behavioral testing. Each animal was only used once.
Locomotor activity was monitored in an automated 14 station activity monitoring system (San Diego Instrument Co.). Each station consisted of a clear perspex cage (25 cm×45 cm×20 cm; w×1×h) placed within a metal frame containing 3 photoemmitors and 3 photodetectors spaced equally along the length of the wall. The bottom of each cage was lightly covered in clean cedar bedding.
The mice were placed in the testing room at least 1 hr prior to testing. The mice were placed individually into one of the activity cages and allowed to explore for 30 min. […] Following a 60 minute pre-treatment period, motor activity was monitored for 180 minutes. Activity counts and ambulations (defined as a break of 2 consecutive photobeams) for each animal were recorded every 30 minutes.
A repeated measures two-way analysis of variance (ANOVA) was performed using the overall ranked data (nonparametric technique) to test for the overall effects of treatment, time interval and treatment by time interval interaction. […]

[5] = in vivo; cited from earlier work
[6] = system: spontaneous hypertensive rats; assay: SCH-23390 pretreatment study in restrained SHRs; assay type: in vivo; settings: SCH-23390 iv, post-iv period
From the text: Male, spontaneous hypertensive rats (280-345 g; Charles River Labs, Kingston, N.Y.) were fasted overnight then anesthetized with ether. A femoral artery and femoral vein were cannulated with PE50 tubing for recording of blood pressure and administration of compounds, respectively. Animals were then placed in MAYO restrainers and their feet loosely taped to the restrainer. Heparinized saline (50 units sodium heparin/ml) was used to maintain patency of each cannula throughout the experiment. The following parameters were continuously recorded using Modular Instruments MI^2 BioReport™ software installed on an IBM personal computer: mean arterial pressure (MAP), heart rate (HR), and the change from baseline for each parameter at specified time points in the experiment.
All compounds were dissolved on the day of use. Nepicastat was dissolved in deionized water (vehicle) to a free base concentration of 1 mg/ml. Oral dosing volume for nepicastat or vehicle was 10 ml/kg. SCH-23390 was dissolved in saline (vehicle) to a free base concentration of 0.2 mg/ml. […] or saline were administered intravenously as a bolus in a volume of 1.0 ml/kg followed by 0.2 ml flush of isotonic saline.
Following surgical preparation, each animal was allowed a minimum one hour recovery period. Animals were randomly assigned to four treatment groups: vehicle (iv)/vehicle (po); vehicle (iv)/nepicastat (po); SCH-23390 (iv)/vehicle (po); or SCH-23390 (iv)/nepicastat (po). Once animals were stabilized (minimum one hour), baseline blood pressure and heart rate was determined by taking an average of each parameter over a 15 min period of time. Once baseline blood pressure and heart rate were established, animals were dosed intravenously with either SCH-23390 (200 μg/kg) or vehicle (saline, 1 ml/kg). Fifteen minutes later, animals were orally dosed with either nepicastat (10 mg/kg) or vehicle (deionized water, 10 ml/kg).
Recorded parameters were measured 15 min prior to intravenous dosing to establish baseline blood pressure and heart rate. Recorded parameters were then measured at 5, 10, and 15 min following intravenous administration of SCH-23390 or vehicle. Following oral administration of nepicastat or vehicle, recorded parameters were measured at 15, 30, 60, 90, 120, 150, 180, 210, and 240 min.
At the end of the experiment, each animal was anesthetized with halothane and euthanized via decapitation. The cortex, left ventricle (apex), and mesenteric artery were dissected out, weighed, and fixed in 0.4 M perchloric acid. Tissues were then frozen in liquid nitrogen and stored at −70° C. Biochemical analysis are performed on these tissues at a later date to determine catecholamine levels including dopamine and norepinephrine levels. Blood pressure and heart rate were analyzed separately. The change from baseline for blood pressure and heart rate were analyzed by an analysis of variance (ANOVA) with effects for treatment, time, and their interaction. This analysis was performed both for the post-iv time period and for the post-oral time period. Further analyses were performed at each time by an ANOVA with a main effect for […]. Pairwise comparisons were performed following each ANOVA by Fisher's LSD strategy with a Bonferroni correction when the overall treatment effect was not significant.
An additional analysis was performed to compare the baseline means of each treatment group by an ANOVA with a main effect for treatment and subsequent pairwise comparisons. […]

[7] = cited from earlier work
[8] = system: brain dopamine/norepinephrine ratio; assay: Dopamine/norepinephrine ratios in the brain of rodents; settings: in vivo
Procedure: Dopamine/norepinephrine ratios in the brain of rodents treated with nepicastat were determined. Dopamine/norepinephrine ratios increased in the brains of rodents treated with nepicastat or disulfuram.

SMILES: NNc1nncc2ccccc12 [hydralazine]
- heart rate [1]: varying degrees of tachycardia
- time in which the hypotensive effect subsided [1]: 10 h
- maximal decrease in MBP ([1]; within 1 hr after dosing on day 1): −24 mmHg

SMILES: Clc1cccc(Cl)c1N=C1NCCN1 [clonidine]
- locomotor activity (horizontal activity, movements, rest time) vs vehicle [2]: significantly more horizontal activities at 2 and 2.5 hours
- maximum and average acoustic startle response vs vehicle [2]: statistically significantly lower maximum and average startle responses
- body core temperature [3]: significantly increasing body core temperature on day one
- pre-pulse inhibition [3]: just significantly higher percent prepulse inhibition

SMILES: COC(=O)[C@H]1[C@@H](OC(=O)c2ccccc2)C[C@@H]2CC[C@H]1N2C.Cl [cocaine, cocaine hydrochloride]
- total activity counts and ambulations vs vehicle [4]: significantly greater total activity counts
- elimination half-life [5]: about 90 min

SMILES: CN1CCc2cc(Cl)c(O)cc2[C@@H](c2ccccc2)C1 [SCH-23390, reference compound]
- decrease in mean arterial pressure [6]: 5±1 mmHg

SMILES: CCN(CC)C(=S)SSC(=S)N(CC)CC [disulfuram]
- cocaine use vs placebo ([7]; disulfuram 250 mg per day): reduced cocaine use compared to placebo
- elevations in plasma cocaine levels ([7]; intranasal cocaine during disulfuram treatment, one controlled study): Six-fold elevations
- dopamine/norepinephrine ratios in the brain [8]: increased
